The test system of one assay is 1a-H77 replicons. Briefly: Predominant resistant variants selected in genotype 1a replicons. In kind it is cell-based, HCV. The procedure: (§1) Predominant resistant variants selected by Compound 1, 2, or 4 in genotype 1 replicons were also determined. For Compound 1, the predominant resistance variants in 1a-H77 replicons include R155K, D168A and D168V with fold resistance of 26, 48 and 128, respectively; and the predominant resistance variants in 1b-Con1 replicons include R155K, A156T and D168V with fold resistance of 48, 9 and 190, respectively. For Compound 2, the predominant resistance variants in 1a-H77 replicons include C316Y, M414T, Y448C and S556G with fold resistance of 1600, 36, 980 and 15, respectively; and the predominant resistance variants in 1b-Con1 replicons include C316Y, M414T and D559G with fold resistance of 1400, 26 and 100, respectively. For Compound 4, the predominant resistance variants in 1a-H77 replicons include M28T, M28V, Q30R, Y93C and Y93H with fold resistance of 9000, 60, 800, 1700 and 41000, respectively; and the predominant resistance variants in 1b-Con1 replicons include Y93H with fold resistance of 55.
For orientation: Replicon systems follow genome replication, usually without infectious particles.

For the next assay, the system named is 1b-Con1 replicons. Briefly: Predominant resistant variants selected in genotype 1b replicons. The class given is cell-based, HCV. The procedure:
as §1

The structures appear in SMILES notation.

As to `COc1c(-c2ccc3cc(NS(C)(=O)=O)ccc3c2)cc(-n2ccc(=O)[nH]c2=O)cc1C(C)(C)C` [Compound 2, N-(6-(3-tert-butyl-5-(2,4-dioxo-3,4-dihydropyrimidin-1(2H)-yl)-2-methoxyphenyl)naphthalen-2-yl)methanesulfonamide], the fold resistance in the assay on 1a-H77 replicons (variant C316Y) is listed as 1600 fold; with 1a-H77 replicons (variant M414T), 36 fold; in the assay with 1a-H77 replicons (variant S556G) it was 15 fold; in the assay with 1a-H77 replicons (variant Y448C), 980 fold; in the assay on 1b-Con1 replicons (variant C316Y), 1400 fold; with 1b-Con1 replicons (variant D559G), 100 fold. Moreover, the fold resistance in the assay with 1b-Con1 replicons (variant M414T) was determined as 26 fold.

With `COC(=O)N[C@H](C(=O)N1CCC[C@H]1C(=O)Nc1ccc([C@@H]2CC[C@@H](c3ccc(NC(=O)[C@@H]4CCCN4C(=O)[C@@H](NC(=O)OC)C(C)C)cc3)N2c2ccc(C(C)(C)C)cc2)cc1)C(C)C` [Compound 4, dimethyl (2S,2′S)-1,1′-((2S,2′S)-2,2′-(4,4′-(2S,5S)-1-(4-tert-butylphenyl)pyrrolidine-2,5,diyl)bis(4,1-phenylene))bis(azanediyl)bis(oxomethylene)bis(pyrrolidine-2,1-diyl)bis(3-methyl-1-oxobutane-2,1-diyl)dicarbamate], the fold resistance in the assay on 1a-H77 replicons (variant M28T) was found to be 9000 fold; in the assay with 1a-H77 replicons (variant M28V) it was 60 fold; in the assay on 1a-H77 replicons (variant Q30R), 800 fold; in the assay on 1a-H77 replicons (variant Y93C), 1700 fold; with 1a-H77 replicons (variant Y93H), 41000 fold; in the assay on 1b-Con1 replicons (variant Y93H), 55 fold.

As to `Cc1cnc(C(=O)N[C@H]2CCCCC/C=C\[C@@H]3C[C@@]3(C(=O)NS(=O)(=O)C3CC3)NC(=O)[C@@H]3C[C@@H](Oc4nc5ccccc5c5ccccc45)CN3C2=O)cn1` [Compound 1, (2R,6S,13aS,14aR,16aS,Z)—N-(cyclopropylsulfonyl)-6-(5-methylpyrazine-2-carboxamido)-5,16-dioxo-2-(phenanthridin-6-yloxy)-1,2,3,5,6,7,8,9,10,11,13a,14,14a,15,16,16a-hexadecahydrocyclopropa[e]pyrrolo[1,2-a][1,4]diazacyclopentadecine-14a-carboxamide], the fold resistance stood at 48 fold in the assay on 1a-H77 replicons (variant D168A); 128 fold with 1a-H77 replicons (variant D168V); 26 fold in the assay with 1a-H77 replicons (variant R155K); 9 fold with 1b-Con1 replicons (variant A156T); 190 fold in the assay with 1b-Con1 replicons (variant D168V); 48 fold with 1b-Con1 replicons (variant R155K).
